The structures appear in SMILES notation. “Also recorded” adds a separate entry of the source. Structures can show the parent of a compound that is named as a salt. Where only a bound is given, the exact number is not on record here.

Series [1] is described as follows: Solubility noted for preparing the formulations.
In series [2] the test system is chronic constriction injury (CCI) rats. The series can be described thus: Thermal paw withdrawal latency (Hargreaves test) in chronic constriction injury model. The format is in vivo, Wistar rats. The conditions noted are these: days 7 and 14, vs control (PBS). Here is the method: (§1) The behavioral animal model of chronic constriction injury (“CCI”) was chosen to evaluate the efficacy of an analgesic and anti-inflammatory agent as a pain and inflammation treatment. This model may mimic pain associated with sciatica in humans.
(§2) Fifty-Six male Wistar rats (Charles River Laboratories, Wilmington, Mass.) weighing 300±26 g the day of surgery (Day 1) were used in this study. All experiments were conducted in accordance with the International Association for the Study of Pain guidelines and approved by the Institutional Animal Care and Use Committee at SRI International, Inc (Menlo Park, Calif.). CCI was induced according to the method of Bennett and Xie. Briefly, each animal was anesthetized by intraperitoneal (IP) injection of sodium pentobarbital at a dose of 60 mg/kg. The animal's common sciatic nerve was exposed and freed from adherent tissue at mid-thigh by separating the biceps femoris muscles by blunt dissection. Four loose ligatures were placed 1 mm apart, using chromic gut suture (4-0 absorbable suture; Jorgensen Laboratories, Inc., Loveland, Colo.).
(§3) Seven animals were randomly assigned to each treatment group.
Withdrawal latencies to a noxious thermal stimulus were measured according to the Hargreaves test using a plantar analgesia instrument (Stoelting, Wood Dale, Ill.) on Days −2, 7, and 14 (see FIG. 3). The radiant infrared heat source stimulus intensity was set to IR50 and the cut-off time was set at 15 seconds. Rats were placed on a glass platform and allowed to habituate to the testing chambers for a minimum of 15 minutes prior to each testing session. The thermal stimulus was applied to the plantar surface of the paw. Thermal thresholds were defined as the latency in seconds at the first pain behavior, which includes paw withdrawal, flinching, biting and/or licking of the stimulated paw. The readings for all animals were averaged and the mean and standard error of the mean (SEM) were determined for each treatment group.

The test system is the same in series [3]. The series can be described thus: Mechanical allodynia (von Frey monofilaments, 50% paw withdrawal threshold) in chronic constriction injury model. The conditions noted are these: days 8 and 15, vs control (PBS). In kind it is in vivo, Wistar rats. Here is the method:
as §1, §2, §3
Mechanical allodynia was measured using von Frey monofilaments (Stoelting, Wood Dale, Ill.) with varying stiffness (2.0-15.0 g) on Days −1, 8, and 15 as described previously (see FIG. 4). Animals were placed on a perforated metallic platform and allowed to habituate to their surroundings for a minimum of 15 minutes before testing. The 50% paw withdrawal threshold response was determined by a sequential increasing and/or decreasing of the stimulus strength (the “up-down method” of Dixon). Each filament was applied with enough pressure to cause a buckling effect. Absence of a paw lifting/withdrawal response after 5 seconds prompted the use of the filament of next higher weight. Paw withdrawal indicating a positive response prompted the use of a weaker filament. After the initial response (i.e., paw withdrawal), the testing continued for four additional measurements and was used to calculate the response threshold. Four consecutive positive responses received a score of 0.25 g, and five consecutive negative responses (i.e., no paw withdrawal) received a score of 15 g. The 50% paw withdrawal threshold was calculated using the formula: 10(Xf+kd)/10,000, where Xf is the final von Frey filament used (log units), k is a value that analyzes the response pattern (taken from the table published by Chaplan et al.), and d is the mean difference between stimuli (log units). The mean and standard error of the mean (SEM) were determined for each treatment group.

[4] abbreviates: 2 mg/kg/day IP daily, listed as sulindac.

Broadly, the solubility is the dissolved amount per volume that the medium holds. Low readings indicate a poorly soluble substance, high ones a readily soluble substance. Consider `COc1cccc([C@]2(O)CCCC[C@H]2CN(C)C)c1` (racemic) [Tramadol, (±)cis-2-[(dimethylamino)methyl]-1-(3-methoxyphenyl)cyclohexanol hydrochloride], for which, in series [1] (saline, saline or isotonic), the solubility is not below 25 mg/mL.
Take `N=C(N)NCCSSCCNC(=N)N` [GED, guanidinoethyldisulfide]: the “solubility in organic solvents” value in series [1] (printed 'irganic solvents') is recorded as “insoluble”. In series [1] (water), this compound yielded a solubility not above 5 mg/mL. Also, the figures for the “thermal paw withdrawal latency: reducing pain and/or inflammation” value in series [2] (1 mg/kg/day IP daily) and in series [2] (3 mg/kg/day IP daily) were “effective at reducing pain and/or inflammation for 14 days” and “effective at reducing pain and/or inflammation for 14 days; also recorded: particularly effective at reducing pain and/or inflammation”, respectively. In addition, the “mechanical thresholds (von Frey): reducing pain and/or inflammation” value in series [3] (1 mg/kg/day IP daily) was “effective at reducing pain and/or inflammation for 15 days; also recorded: particularly effective at reducing pain and/or inflammation”; in series [3] (3 mg/kg/day IP daily), “effective at reducing pain and/or inflammation for 15 days”.
In the case of `CC[C@H](C)C(=O)O[C@H]1C[C@@H](C)C=C2C=C[C@H](C)[C@H](CC[C@@H]3C[C@@H](O)CC(=O)O3)[C@H]21` [Lovastatin, lovastatin], in series [1] (DMSO), the “Soluble in DMSO” value is given as “up to 40 mg/kg”. Besides, the “thermal paw withdrawal latency: reducing pain and/or inflammation” value in series [2] (0.3 mg/kg/day IP daily) is “effective at reducing pain and/or inflammation for 14 days”; in series [2] (3 mg/kg/day IP daily) it was “effective at reducing pain and/or inflammation for 14 days; also recorded: particularly effective at reducing pain and/or inflammation”. The “mechanical thresholds (von Frey): reducing pain and/or inflammation” value in series [3] (0.3 mg/kg/day IP daily) was “effective at reducing pain and/or inflammation for 15 days”; in series [3] (3 mg/kg/day IP daily) it was “effective at reducing pain and/or inflammation for 15 days”; in series [3] (3 mg/kg/day IP daily, listed as lovastatin), “particularly effective at reducing pain and/or inflammation”.
For `CC1=C(CC(=O)O)c2cc(F)ccc2C1=Cc1ccc([S+](C)[O-])cc1` (centres unmarked) [Sulindac, 2-[6-fluoro-2-methyl-3-[(4-methylsulfinylphenyl)-methylidene]inden-1-yl]-acetic acid], the “thermal paw withdrawal latency: reducing pain and/or inflammation” value in series [2] (2 mg/kg/day IP daily) is “particularly effective at reducing pain and/or inflammation”; in series [2] (setting [4]) it was “effective at reducing pain and/or inflammation for 14 days”. The “mechanical thresholds (von Frey): reducing pain and/or inflammation” value is “particularly effective at reducing pain and/or inflammation” in series [3] (2 mg/kg/day IP daily) and “effective at reducing pain and/or inflammation for 15 days” in series [3] (setting [4]).

The record behind these values is US20090263489A1, “ANALGESIC AND ANTI-INFLAMMATORY COMPOSITIONS AND METHODS FOR REDUCING, PREVENTING OR TREATING PAIN AND INFLAMMATION” (Warsaw Orthopedic, Inc., priority 2008, published 2009).
